From patent publication US10881698B2, “Diagnosis and treatment for respiratory tract diseases” (THE TRUSTEES OF THE UNIVERSITY OF PENNSYLVANIA, priority 2012, dated 2021)
Changes are numbered by the printed parent chain.

Columns and labels:
beta-defensin 2 = test: Beta-defensin 2 secretion by sinonasal cultures; assay type: cell-based, human
Kleibsiella pneumoniae = test: Bactericidal effect of ASL from treated nasal cultures; assay type: cell-based; conditions: 10 mM denatonium or 300 μM absinthin
T2R38 [1] = target: T1, T2R38 (Homo sapiens, UniProt P59533, A49P/I296V); test: DAF-FM imaging of NO production in human sinonasal ALI cultures; assay type: cell-based; conditions: thujone 5 mM, denatonium 10 mM; PAV/PAV cultures
T1 construct: T2R38 is expressed in human upper airway epithelium; endogenous in cells; host or cells: primary human sinonasal epithelial cells, air-liquid interface cultures from surgical patients
T1 sequence (P59533 1-333 A49P/I296V): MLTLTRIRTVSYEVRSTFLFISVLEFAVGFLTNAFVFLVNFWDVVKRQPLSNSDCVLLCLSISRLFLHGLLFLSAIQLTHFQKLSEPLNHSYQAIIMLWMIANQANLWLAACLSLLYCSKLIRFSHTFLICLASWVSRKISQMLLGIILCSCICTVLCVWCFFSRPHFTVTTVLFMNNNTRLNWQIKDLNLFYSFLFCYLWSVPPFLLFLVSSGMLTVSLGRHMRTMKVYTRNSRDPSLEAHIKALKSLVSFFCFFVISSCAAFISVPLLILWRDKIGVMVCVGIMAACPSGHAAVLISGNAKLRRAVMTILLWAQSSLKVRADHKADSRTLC

AVI-TAS2R38 = target: T2, AVI-TAS2R38 (Homo sapiens, UniProt P59533, A262V); test: Fluo-4 calcium mobilization in HEK293 cells expressing hTAS2R38 (AVI) and Gα16gustducin44; assay type: cell-based; conditions: 1 mM agonist; AVI variant
T2 construct: first 45 amino acids of rat SSTR-3 (N); host or cells: HEK293 (peakRapid), transient transfection, pcDNA3.1(+)
T2 sequence (P59533 1-333 A262V): T1 sequence (P59533 1-333 A49P/I296V) with P49A, A262V, V296I

PAV-TAS2R38 = target: T3, PAV-TAS2R38 (Homo sapiens, UniProt P59533, A49P/I296V); test: Fluo-4 calcium mobilization in HEK293 cells expressing hTAS2R38 (PAV) and Gα16gustducin44; assay type: cell-based; conditions: 1 mM agonist; PAV variant
T3 construct: first 45 amino acids of rat SSTR-3 (N); host or cells: HEK293 (peakRapid), transient transfection, pcDNA3.1(+)
T3 sequence (P59533 1-333 A49P/I296V): T1 sequence (P59533 1-333 A49P/I296V)

Pseudomonas aeruginosa = test: Kill assay with ASL from stimulated sinonasal ALI cultures (CFU plating); assay type: cell-based; conditions: for Growth of bacteria mixed with ASL from stimulated cultures: 10 mM denatonium, 300 μM absinthin, Pseudomonas aeruginosa; for Effect of solutions alone on growth: no ASL, Pseudomonas
[2] = tested on: Methicillin-resistant Staphylococcus aureus (MRSA); test: as above; assay type: cell-based; conditions: for Growth of bacteria mixed with ASL from stimulated cultures: 10 mM denatonium, 300 μM absinthin; for Effect of solutions alone on growth: no ASL
nasal epithelial cells = test: Fluo-4 calcium signaling with denatonium in nasal epithelial cells (sinonasal ALI cultures); assay type: cell-based, human; conditions: 0.1-20 mM denatonium
T2R38 [3] = test: Fluo-4 Ca2+ imaging in primary human sinonasal ALI cultures; assay type: cell-based; conditions: 1 mM PTC; PAV/AVI cultures
T2R38 [4] = target: T1, T2R38; test: as above; assay type: cell-based; conditions: 1 mM PTC; PAV/PAV cultures
T2R38 [5] = target: T4, T2R38 (Homo sapiens, UniProt P59533, A262V); test: as above; assay type: cell-based; conditions: 1 mM PTC; AVI/AVI cultures
T4 construct: T2R38 is expressed in human upper airway epithelium; endogenous in cells; host or cells: primary human sinonasal epithelial cells, air-liquid interface cultures from surgical patients
T4 sequence (P59533 1-333 A262V): T1 sequence (P59533 1-333 A49P/I296V) with P49A, A262V, V296I

[6] = tested on: acutely dissociated sinonasal ciliated epithelial cells; test: Ca2+ and DAF-FM responses in acutely dissociated sinonasal ciliated cells; assay type: cell-based, human
T2R38 [7] = target: T1, T2R38; test: DAF-2/Texas Red dextran ratio assay of NO secretion into ASL; assay type: cell-based; conditions: 1 mM PTC, PAV/PAV
Procedure: (§1) For measurement of NO secretion, a protocol was developed in which a solution of Texas Red Dextran (an NO-insensitive cell-impermeant dye) and DAF-2 (an NO-sensitive cell-impermeant dye) were added in a small volume (10 μl) to the apical surface of the cultures. The ratio of DAF-2/Texas Red fluorescence was recorded using wide-field epifluorescence microscopy at baseline and after incubation at 37° C. for the indicated times. This experiment was validated by addition of DETA-NONOate, an NO donor that releases 2 moles of NO per mole of parent molecule. DETA-NONOate was added on top of ALI cultures in pH 5 buffer to stimulate rapid decomposition. Imaging was performed using a Nikon 20×0.5 NA PlanFluor objective and 100 W mercury arc lamp with filters from Chroma Technologies (Rockingham, Vt.). Green filter contained a 480/40 nm band-pass [bp] excitation filter (reported as max transmission wavelength/filter width at half maximal transmission), a 505 nm dichroic mirror, and a 535/40 nm by emission filter. Red filter set contained a 560/40 nm by excitation filter, 595 dichroic mirror, and 630/60 nm by emission filter.
(§2) We also utilized a fluorescence-based assay to measure NO diffusion into the ASL. The apical surface of cultures was overlaid with a small volume (10 μl) of phosphate-buffered saline with or without 1 mM PTC containing 2 spectrally distinct cell-impermeant dyes, the NO-sensitive 4,5-diaminofluorescence diacetate (DAF-2) and the NO-insensitive Texas Red dextran ([…] MW); a ratiometric measurement was used to eliminate any artifacts due to expansion or contraction of ASL volume. The ratio of DAF-2/Texas Red fluorescence was recorded by fluorescence microscopy after 5, 30 and 60 min incubations at 37° C. […] We utilized this assay to determine if exposure to Pseudomonas and their secretions was sufficient to cause epithelial cells to produce NO with subsequent diffusion into the ASL. Log-phase cultures of PAO1 and PAO-JP2 were resuspended in PBS and placed on the ALI surface in the presence of DAF-2 and Texas Red.

T2R38 [8] = target: T4, T2R38; test: as above; assay type: cell-based; conditions: 1 mM PTC, AVI/AVI
Procedure: as §1, §2

T2R38 [9] = test: NO metabolites in airway surface liquid by chemiluminescence; assay type: cell-based, human; conditions: 1 mM PTC; 20 min
Procedure: (§3) ASL from stimulated and unstimulated cultures (20 μL total volume for each) was collected after 20 min at 37° C. and frozen at −20° C. and protected from light until analysis. NO-metabolites were evaluated by reduction of metabolites with acidified-heated vanadium to nitric oxide and detection of nitric oxide by chemiluminescence on the Sievers 280 nitric oxide analyzer. Samples were injected into a custom made purge container containing 0.05 M Vanadium chloride in 1 N HCl heated to 95° C. The reading in millivolts was compared to a standard curve generated by injecting standard solutions of nitrate. This reductive method reports on the total levels of nitrate, nitrite, N-nitroso and iron-nitrosyl adducts as well as low molecular weight and protein S-nitrosothiol adducts.
(§4) The antibacterial properties of NO help maintain the sterility of the sinonasal airways. […] NO diffusion into the ASL was quantified by measuring NO-derived byproducts in 20 μL of airway surface liquid from cultures stimulated with 1 mM PTC (or PBS alone) for 20 min using reductive chemistries coupled with chemiluminescence detection of nitric oxide (FIG. 20A). ASL levels of NO metabolites (nitrate, nitrite, N-nitroso and iron-nitrosyl adducts as well as low molecular weight and protein S-nitrosothiol adducts) were not different in unstimulated PAV/PAV and AVI/AVI cultures (0.41±0.13 pmol/μL for PAV/PAV and 0.66±0.33 for AVI/AVI; n.s. vs PAV/PAV). However, the increase observed in PTC-stimulated PAV/PAV cultures was >2-fold larger than that observed in AVI/AVI cultures (FIG. 20A). In PTC stimulated cultures, NO metabolites in the ASL over 20 minutes were 4.37 pmol/μL (PAV/PAV; P<0.001 vs unstimulated PAV/PAV) and 1.72 pmol/μL (AVI/AVI; P<0.01 vs stimulated PAV/PAV; n.s. vs unstimulated AVI/AVI).

T2R38 [10] = target: T1, T2R38; test: as above; assay type: cell-based; conditions: 1 mM PTC; PAV/PAV
Procedure: as §3, §4

T2R38 [11] = target: T4, T2R38; test: as above; assay type: cell-based; conditions: 1 mM PTC; AVI/AVI
Procedure: as §3, §4

Structure (SMILES)	Beta-defensin 2 secretion (beta-defensin 2)	Bactericidal effect of ASL from treated nasal cultures (Kleibsiella pneumoniae)	Peak Fluo-4 fluorescence (ΔF/F) (AVI-TAS2R38) [%]	Peak Fluo-4 fluorescence (ΔF/F) (PAV-TAS2R38) [%]	Growth of bacteria mixed with ASL from stimulated cultures (Pseudomonas aeruginosa) [CFUs]	Effect of solutions alone on growth (Pseudomonas aeruginosa)	Growth of bacteria mixed with ASL from stimulated cultures [2] [CFUs]	Effect of solutions alone on growth [2]	also measured
CC[N+](CC)(CC(=O)Nc1c(C)cccc1C)Cc1ccccc1 [denatonium, denatonium benzoate]	induced	significant bactericidal effects	3±1	1±2	0	had no effect	0	had no effect	NO production with non-T2R38 bitter ligands (T2R38 [1]): did not stimulate NO production; Fluo-4 fluorescence on stimulation with denatonium (nasal epithelial cells): increases fluo-4 fluorescence
CC1=C[C@H]2[C@H]3[C@H](C(C)=C4[C@H]5OC(=O)[C@@H](C)[C@@H]5CC[C@](C)(O)[C@@H]43)[C@@]13[C@@H]2[C@@](C)(O)CC[C@H]1[C@H](C)C(=O)O[C@@H]13 [absinthin]	induced	significant bactericidal effects			0	had no effect	0	had no effect	
NC(=S)Nc1ccccc1 [PTC, phenylthiocarbamide]			−4±1	114±4					Fluo-4 fluorescence after 5 min PTC (T2R38 [3]): 1.14±0.035; Fluo-4 fluorescence after 5 min PTC (T2R38 [4]): 1.30±0.027; Fluo-4 fluorescence after 5 min PTC (T2R38 [5]): 1.06±0.02; Ca2+ responses in acutely dissociated sinonasal ciliated cells [6]: occurred; DAF-2/Texas Red Dextran fluorescence ratio after PTC stimulation (T2R38 [7]; 5 min): 0.46±0.10; DAF-2/Texas Red Dextran fluorescence ratio after PTC stimulation (T2R38 [7]; 30 min): 1.55±0.17; DAF-2/Texas Red Dextran fluorescence ratio after PTC stimulation (T2R38 [7]; 60 min): 2.52±0.76; DAF-2/Texas Red Dextran fluorescence ratio after PTC stimulation (T2R38 [8]; 5 min): 0.54±0.1; DAF-2/Texas Red Dextran fluorescence ratio after PTC stimulation (T2R38 [8]; 30 min): 0.71±0.1; DAF-2/Texas Red Dextran fluorescence ratio after PTC stimulation (T2R38 [8]; 60 min): 0.90±0.3; Increase in NO metabolites, PTC-stimulated PAV/PAV relative to AVI/AVI cultures (T2R38 [9]): > 2 fold; NO metabolites in the ASL over 20 minutes (T2R38 [10]): 4.37 pmol/µL; NO metabolites in the ASL over 20 minutes (T2R38 [11]): 1.72 pmol/µL
